Data published in paper PMC11180795 (Frontiers in Pharmacology, 2024).

How the values were obtained:
[1] = Cytotoxicity MTT assay on RAW 264.7 cells; assay type: cell-based, Murine; conditions: mouse, RAW 264.7 macrophage cells, 48 h incubation, read-out: IC50, cytotoxic effect on RAW264.7 cells
Experimental: Murine macrophage RAW 264.7 cell line obtained from the American Type Culture Collection (Rockville, MD, United States) was maintained in DMEM supplemented with 10% fetal calf serum (FCS) and 1% penicillin/streptomycin/fungizone (PSF) under standard cell culture conditions at 37°C and 5% CO2 in a humidified environment.
The cytotoxic effect of compounds on RAW 264.7 cells was assessed using the 3-(4, 5-dimethylthiazol-2-yl)-2, 5-diphenyl tetrazolium bromide (MTT) assay as established by Mosmann ([Mosmann, 1983]) with slight modifications. Briefly, cells were seeded at a density of 1 × 10^5 cells/mL (100 µL) in 96-well microtitre plates and incubated at 37°C and 5% CO2 in a humidified environment. After 24 h incubation, 100 µL of compounds (at concentration ranged from to 250 μM–1.95 µM) were added to the wells containing cells and further incubated for 48 h in a CO2 incubator. A suitable control (untreated cells) was included and doxorubicin was used as a positive reference. Thereafter, the medium in each well was aspirated from the cells, which were then washed with PBS, and finally fresh medium (200 µL) was added to each well. Then, 30 µL of MTT (5 mg/mL in PBS) was added to each well and the plates were incubated at 37°C for 4 h. The medium was aspirated from the wells and DMSO was added to solubilize the formed formazan crystals. The absorbance was read at 570 nm (SpectraMax 190, Molecular devices). The percentage of cell inhibition was calculated with reference to the control (untreated cells taken as 100% viability). Then, the IC50 values of plant compounds showing more than 50% cell growth inhibition were calculated by plotting the percentage inhibition against the concentration.

[2] = system: RAW 264.7 macrophage cells; parameters: method as in Sukandar et al., 2023; conditions: final concentration of 100 μM, ref Sukandar et al., 2023; cited from earlier work
NO production = system: NO production; parameters: method as in Liu et al., 2016; conditions: ref Liu et al., 2016; read-out: IC50, inhibition of NO production; cited from earlier work

| Compound | IC50 at 48 h [1] [µM] | IC50 (NO production) [µM] | other results |
| --- | --- | --- | --- |
| CC(C)=CCCC1(C)C=Cc2c(cc3oc4c(O)ccc(O)c4c(=O)c3c2O)O1 (stereo not shown) [Compound 3, Smeathxanthone B] | > 100 | – | melting point: 187 to 189 °C |
| CC12CCC3C1C(c1c(cc(O)c(C(=O)c4ccccc4)c1O)O2)C3(C)C (stereo not shown) [clusiacyclol A] | – | – | NO inhibition [2]: over 85%; cytotoxicity (in words) [2]: without obvious cytotoxicity |
| garcinoxanthone B | – | 11.3 | – |
| garcinoxanthone C | – | 18 | – |
| COc1cccc2c1C(=O)c1c(O)c3c(c(O)c1C2=O)C[C@@](O)(C(=O)CO)C[C@@H]3O[C@H]1C[C@H](N)[C@H](O)[C@H](C)O1 [Doxorubicin, doxorubicin, reference compound] | 4.63 | – | – |
